Source: patent US12404289B2 (Gilead Sciences, Inc., priority 2020, dated 2025)

Experiments:
[1] = tested on: Respiratory syncytial virus (RSV) strain A2; assay: Hep-2 RSV2 384-well assay (EC50-HEP2-384); format: cell-based; conditions: human respiratory syncytial virus, HEp-2, 96 h, HEp-2 cells, RSV A2, MOI=4, 4 days, Table 3
SARS-CoV-2 = SARS-CoV-2 antiviral assay (A549-hACE2, Nano luciferase); format: cell-based; conditions: Severe acute respiratory syndrome coronavirus 2, 48 h, A549-hACE2 cells, SARS-CoV2-Nano, MOI 0.025, 48 h; Table 4; read-out: EC50 SARS CoV2

`C[C@H](NP(=O)(OC[C@H]1O[C@@](C#N)(c2ccc3c(N)ncnn23)[C@H](O)[C@@H]1O)Oc1ccc(C(C)(C)C)cc1)C(=O)OC1CCC1` (stereo partly drawn) [Example 31, Cyclobutyl ((((2R,3S,4R,5R)-5-(4-aminopyrrolo[2,1-f][1,2,4]triazin-7-yl)-5-cyano-3,4-dihydroxytetrahydrofuran-2-yl)methoxy)(4-(tert-butyl)phenoxy)phosphoryl)-L-alaninate] gave an EC50 [1] of 53.2 nM and an EC50 (SARS-CoV-2) of 250 nM.

`CC(=O)O[C@H]1[C@@H](OC(C)=O)[C@](C#N)(c2ccc3c(N)ncnn23)O[C@@H]1CO[P@@](=O)(N[C@@H](C)C(=O)O[C@H]1CCOC1)Oc1ccc(C(C)(C)C)cc1` [Example 37, (2R,3R,4R,5R)-2-(4-aminopyrrolo[2,1-f][1,2,4]triazin-7-yl)-5-((((4-(tert-butyl)phenoxy)(((S)-1-oxo-1-(((S)-tetrahydrofuran-3-yl)oxy)propan-2-yl)amino)phosphoryl)oxy)methyl)-2-cyanotetrahydrofuran-3,4-diyl Diacetate] gave an EC50 [1] of 187 nM and an EC50 (SARS-CoV-2) of 282 nM.

With `CCOC(=O)[C@H](C)NP(=O)(OC[C@H]1O[C@@](C#N)(c2ccc3c(N)ncnn23)[C@H](OC(=O)C(C)C)[C@@H]1OC(=O)C(C)C)Oc1ccc(C23CC(C2)C3)cc1` (stereo partly drawn) [Example 43, (2R,3R,4R,5R)-2-(4-aminopyrrolo[2,1-f][1,2,4]triazin-7-yl)-5-((((4-(bicyclo[1.1.1]pentan-1-yl)phenoxy)(((S)-1-ethoxy-1-oxopropan-2-yl)amino)phosphoryl)oxy)methyl)-2-cyanotetrahydrofuran-3,4-diyl bis(2-methylpropanoate)] the EC50 [1] was 62.8 nM and the EC50 (SARS-CoV-2) was 168 nM.

`CC(C)C(=O)O[C@H]1[C@@H](OC(=O)C(C)C)[C@](C#N)(c2ccc3c(N)ncnn23)O[C@@H]1COP(=O)(N[C@@H](C)C(=O)OC1CC(C)(C)C1)Oc1ccc(C(C)(C)C)cc1` (stereo partly drawn) [Example 94, (2R,3R,4R,5R)-2-(4-aminopyrrolo[2,1-f][1,2,4]triazin-7-yl)-5-((((4-(tert-butyl)phenoxy)(((S)-1-(3,3-dimethylcyclobutoxy)-1-oxopropan-2-yl)amino)phosphoryl)oxy)methyl)-2-cyanotetrahydrofuran-3,4-diyl bis(2-methylpropanoate)] showed an EC50 [1] of 84.5 nM and an EC50 (SARS-CoV-2) of 370 nM.

`CCC(=O)O[C@H]1[C@@H](OC(=O)CC)[C@](C#N)(c2ccc3c(N)ncnn23)O[C@@H]1COP(=O)(N[C@@H](C)C(=O)OC1CC(C)(C)C1)Oc1ccc(C(C)(C)C)cc1` (stereo partly drawn) [Example 95, (2R,3R,4R,5R)-2-(4-aminopyrrolo[2,1-f][1,2,4]triazin-7-yl)-5-((((4-(tert-butyl)phenoxy)(((S)-1-(3,3-dimethylcyclobutoxy)-1-oxopropan-2-yl)amino)phosphoryl)oxy)methyl)-2-cyanotetrahydrofuran-3,4-diyl Dipropionate] gave an EC50 [1] of 61.8 nM and an EC50 (SARS-CoV-2) of 264 nM.

`CC(=O)O[C@H]1[C@@H](OC(C)=O)[C@](C#N)(c2ccc3c(N)ncnn23)O[C@@H]1COP(=O)(N[C@@H](C)C(=O)OC1CC2(CCCC2)C1)Oc1ccc(C(C)(C)C)cc1` (stereo partly drawn) [Example 98a, (2R,3R,4R,5R)-2-(4-aminopyrrolo[2,1-f][1,2,4]triazin-7-yl)-5-((((4-(tert-butyl)phenoxy)(((S)-1-oxo-1-(spiro[3.4]octan-2-yloxy)propan-2-yl)amino)phosphoryl)oxy)methyl)-2-cyanotetrahydrofuran-3,4-diyl Diacetate] showed an EC50 [1] of 62.1 nM and an EC50 (SARS-CoV-2) of 176 nM.

With `C[C@H](NP(=O)(OC[C@H]1O[C@@](C#N)(c2ccc3c(N)ncnn23)[C@H](O)[C@@H]1O)Oc1ccc(C(C)(C)C)cc1)C(=O)OCC1CC1` (stereo partly drawn) [Example 101a, Cyclopropyl methyl ((((2R,3S,4R,5R)-5-(4-aminopyrrolo[2,1-f][1,2,4]triazin-7-yl)-5-cyano-3,4-dihydroxytetrahydrofuran-2-yl)methoxy)(4-(tert-butyl)phenoxy)phosphoryl)-L-alaninate] the EC50 [1] was 41.1 nM and the EC50 (SARS-CoV-2) was 148 nM.

`CCC(=O)O[C@H]1[C@@H](OC(=O)CC)[C@](C#N)(c2ccc3c(N)ncnn23)O[C@@H]1COP(=O)(N[C@@H](C)C(=O)OCC1CC1)Oc1ccc(C(C)(C)C)cc1` (stereo partly drawn) [Example 103b, (2R,3R,4R,5R)-2-(4-aminopyrrolo[2,1-f][1,2,4]triazin-7-yl)-5-((((4-(tert-butyl)phenoxy)(((S)-1-(cyclopropylmethoxy)-1-oxopropan-2-yl)amino)phosphoryl)oxy)methyl)-2-cyanotetrahydrofuran-3,4-diyl Dipropionate] was tested, and the EC50 [1] was 42 nM and the EC50 (SARS-CoV-2) was 363 nM.

`CCC(=O)O[C@H]1[C@@H](OC(=O)CC)[C@](C#N)(c2ccc3c(N)ncnn23)O[C@@H]1COP(=O)(N[C@@H](C)C(=O)OCCC(C)(C)CC)Oc1ccccc1` (stereo partly drawn) [Example 105a, (2R,3R,4R,5R)-2-(4-aminopyrrolo[2,1-f][1,2,4]triazin-7-yl)-2-cyano-5-((((((S)-1-((3,3-dimethylpentyl)oxy)-1-oxopropan-2-yl)amino)(phenoxy)phosphoryl)oxy)methyl)tetrahydrofuran-3,4-diyl Dipropionate] was tested, and the EC50 [1] was 54.6 nM and the EC50 (SARS-CoV-2) was 133 nM.

In the case of `CCC(C)(C)CCOC(=O)[C@H](C)NP(=O)(OC[C@H]1O[C@@](C#N)(c2ccc3c(N)ncnn23)[C@H](OC(C)=O)[C@@H]1OC(C)=O)Oc1ccccc1` (stereo partly drawn) [Example 106a, (2R,3R,4R,5R)-2-(4-aminopyrrolo[2,1-f][1,2,4]triazin-7-yl)-2-cyano-5-((((((S)-1-((3,3-dimethylpentyl)oxy)-1-oxopropan-2-yl)amino)(phenoxy)phosphoryl)oxy)methyl)tetrahydrofuran-3,4-diyl Diacetate], the EC50 [1] is reported as 46.8 nM and the EC50 (SARS-CoV-2) is reported as 83.1 nM.

`CCC(=O)O[C@H]1[C@@H](OC(=O)CC)[C@](C#N)(c2ccc3c(N)ncnn23)O[C@@H]1COP(=O)(N[C@@H](C)C(=O)OCC(C)C)Oc1ccc(C(C)(C)C)cc1` (stereo partly drawn) [Example 138, (2R,3R,4R,5R)-2-(4-aminopyrrolo[2,1-f][1,2,4]triazin-7-yl)-5-((((4-(tert-butyl)phenoxy)(((S)-1-isobutoxy-1-oxopropan-2-yl)amino)phosphoryl)oxy)methyl)-2-cyanotetrahydrofuran-3,4-diyl Dipropionate] was tested, and the EC50 [1] was 36.6 nM and the EC50 (SARS-CoV-2) was 342 nM.

`CC(=O)O[C@H]1[C@@H](OC(C)=O)[C@](C#N)(c2ccc3c(N)ncnn23)O[C@@H]1COP(=O)(N[C@@H](C)C(=O)OCC1CCC1)Oc1ccccc1` (stereo partly drawn) [Example 145, (2R,3R,4R,5R)-2-(4-aminopyrrolo[2,1-f][1,2,4]triazin-7-yl)-2-cyano-5-((((((S)-1-(cyclobutylmethoxy)-1-oxopropan-2-yl)amino)(phenoxy)phosphoryl)oxy)methyl)tetrahydrofuran-3,4-diyl Diacetate] was tested, and the EC50 [1] was 35 nM and the EC50 (SARS-CoV-2) was 101 nM.

For `CCC(C)(C)CCOC(=O)[C@H](C)NP(=O)(OC[C@H]1O[C@@](C#N)(c2ccc3c(N)ncnn23)[C@H](O)[C@@H]1O)Oc1ccc(C(C)(C)C)cc1` (stereo partly drawn) [Example 154, 3,3-dimethylpentyl ((((2R,3S,4R,5R)-5-(4-aminopyrrolo[2,1-f][1,2,4]triazin-7-yl)-5-cyano-3,4-dihydroxytetrahydrofuran-2-yl)methoxy)(4-(tert-butyl)phenoxy)phosphoryl)-L-alaninate], the EC50 [1] was 105 nM and the EC50 (SARS-CoV-2) was 330 nM.

In the case of `C[C@H](NP(=O)(OC[C@H]1O[C@@](C#N)(c2ccc3c(N)ncnn23)[C@H](O)[C@@H]1O)Oc1ccc(C(C)(C)C)cc1)C(=O)OCC1CCCCC1` (stereo partly drawn) [Example 156, Cyclohexylmethyl ((((2R,3S,4R,5R)-5-(4-aminopyrrolo[2,1-f][1,2,4]triazin-7-yl)-5-cyano-3,4-dihydroxytetrahydrofuran-2-yl)methoxy)(4-(tert-butyl)phenoxy)phosphoryl)-L-alaninate], the EC50 [1] is reported as 195 nM and the EC50 (SARS-CoV-2) is reported as 363 nM.

With `CCC(C)(C)CCOC(=O)[C@H](C)NP(=O)(OC[C@H]1O[C@@](C#N)(c2ccc3c(N)ncnn23)[C@H](OC(C)=O)[C@@H]1OC(C)=O)Oc1ccc(C(C)(C)C)cc1` (stereo partly drawn) [Example 159, (2R,3R,4R,5R)-2-(4-aminopyrrolo[2,1-f][1,2,4]triazin-7-yl)-5-((((4-(tert-butyl)phenoxy)(((S)-1-((3,3-dimethylpentyl)oxy)-1-oxopropan-2-yl)amino)phosphoryl)oxy)methyl)-2-cyanotetrahydrofuran-3,4-diyl Diacetate] the EC50 [1] was 79.3 nM and the EC50 (SARS-CoV-2) was 369 nM.

In the case of `CC(=O)O[C@H]1[C@@H](OC(C)=O)[C@](C#N)(c2ccc3c(N)ncnn23)O[C@@H]1COP(=O)(N[C@@H](C)C(=O)OCC1CCCCC1)Oc1ccc(C(C)(C)C)cc1` (stereo partly drawn) [Example 163, (2R,3R,4R,5R)-2-(4-aminopyrrolo[2,1-f][1,2,4]triazin-7-yl)-5-((((4-(tert-butyl)phenoxy)(((S)-1-(cyclohexylmethoxy)-1-oxopropan-2-yl)amino)phosphoryl)oxy)methyl)-2-cyanotetrahydrofuran-3,4-diyl Diacetate], the EC50 [1] is reported as 68 nM and the EC50 (SARS-CoV-2) is reported as 378 nM.

Work on `C[C@@H](CC(=O)OC1CCC1)NP(=O)(OC[C@H]1O[C@@](C#N)(c2ccc3c(N)ncnn23)[C@H](O)[C@@H]1O)Oc1ccc(C(C)(C)C)cc1` (stereo partly drawn) [Example 165, cyclobutyl (3S)-3-(((((2R,3S,4R,5R)-5-(4-aminopyrrolo[2,1-f][1,2,4]triazin-7-yl)-5-cyano-3,4-dihydroxytetrahydrofuran-2-yl)methoxy)(4-(tert-butyl)phenoxy)phosphoryl)amino)butanoate] yielded an EC50 [1] of 5000 nM and an EC50 (SARS-CoV-2) of 10000 nM.

With `CC(=O)O[C@H]1[C@@H](OC(C)=O)[C@](C#N)(c2ccc3c(N)ncnn23)O[C@@H]1COP(=O)(N[C@@H](C)CC(=O)OC1CCC1)Oc1ccc(C(C)(C)C)cc1` (stereo partly drawn) [Example 166, (2R,3R,4R,5R)-2-(4-aminopyrrolo[2,1-f][1,2,4]triazin-7-yl)-5-((((4-(tert-butyl)phenoxy)(((S)-4-cyclobutoxy-4-oxobutan-2-yl)amino)phosphoryl)oxy)methyl)-2-cyanotetrahydrofuran-3,4-diyl Diacetate] the EC50 [1] was 5000 nM and the EC50 (SARS-CoV-2) was 10000 nM.
